Measured values published in patent publication US10610517B2, “Compositions and methods for treating neoplastic diseases” (Celgene International II Sàrl, priority 2004, dated 2020).

Assays:
Bax = experiment: Immunoblot of Bax in mitochondrial protein extracts; assay type: cell-based, human; settings: MM.1S cells; FIG. 12E
Method: Immunoblot analysis was performed using antibodies to cytochrome-c, Smac, Caspase-8, -9, or -3 (Cell Signaling, Beverly, Mass.), tubulin (Sigma, St. Louis, Mo.), PARP, Hsp60, or Bax (BD Bioscience Pharmingen, San Diego, Calif.). Blots were developed by enhanced chemiluminesence (ECL; Amersham, Arlington Heights, Ill.).
Previous studies have established that Bax induces mitochondrial apoptotic pathway. See Wei, M. C., Zong, W. X., Cheng, E. H., Lindsten, T., Panoutsakopoulou, V., Ross, A. J., Roth, K. A., MacGregor, G. R., Thompson, C. B. & Korsmeyer, S. J. (2001) Science 292, 727-30 and Lei, K., Nimnual, A., Zong, W. X., Kennedy, N. J., Flavell, R. A., Thompson, C. […] Thus, whether MM cell apoptosis induced by the compound of formula (II) (X=Cl) correlates with alterations in Bax was evaluated. […] Blots are representatives of three independent experiments.

RPMI 8226 MM cells = assay type: in vivo, beige-nude-xid (BNX) mice; settings: i.v. twice weekly (compound 0.15 mg/kg; Bortezomib 1.0 mg/kg)
[1] = molecular target: proteasome β-5, β-1, β-2 subunits in MM.1S cells (Homo sapiens, UniProt P28072+P28074+Q99436); assay type: cell-based; settings: even higher doses; data not shown
Method: In vivo determination of proteasome activity was conducted using a competition experiment with Dansyl-Ahx3L3VS, which covalently modifies all active proteasome subunits. This inhibitor contains a dansyl sulfonamide hexanoyl hapten that can be visualized by immunoblotting using antibodies against the dansyl moiety. […] Cells were lysed by incubating them for 30 mins in NP-40 lysis buffer (50 mM Tris-HCl pH 8.0, 150 mM NaCl, 1% NP-40), followed by 5 min. centrifugation to remove membrane fractions, nuclei, and cell debris. […] Blots were developed by enhanced chemiluminescence (Western Lightning, Perkin-Elmer).

[2] = test system: normal CCD-27sk fibroblasts; experiment: cells; assay type: cell-based, human; settings: Homo sapiens
Description: (§1) Whether the compound of formula (II) or Bortezomib alters proteasome activity in normal lymphocytes and skin fibroblasts was also examined.

[3] = test system: Mouse embryonic fibroblast (MEFs); experiment: MTT viability of MEFs with wild-type or knock-out Bax; assay type: cell-based; settings: 48 h; FIG. 12F
Description: Results are mean±SD of three independent experiments (P<0.05).

[4] = test system: Lymphocytes from five healthy donors; experiment: MTT cytotoxicity on normal lymphocytes; settings: human, 72 h
Description: Bortezomib therapy is associated with toxicity in patients. […] Results are the mean±SD of three independent experiments.

MM.1S cells [5] = experiment: cells
Description: MM.1S cells were also transiently transfected using Cell line Nucleofecto kit V, according to the manufacturer's instructions (Amaxa Biosystems, Germany), with vector alone, DN-caspase-8, DN-caspase-9, or DN-FADD and cotransfected with vector containing green fluorescence protein (GFP) alone.
It was next determined whether inhibition of an upstream signaling pathway that leads to caspase-8 activation affects the response to the compound of formula (II) (X=Cl) or Bortezomib. The Fas-associated death domain (FADD) protein is an important part of the deathinducing signaling complexes (DISCs) that assemble upon engagement of TNF receptor family members, such as Fas, resulting in proteolytic processing and autoactivation of pro-caspase-8. Since both the compound of formula (II) (X=Cl) and Bortezomib trigger caspase-8 activation, the role of FADD during this event in MM cells was evaluated using DN-FADD.

[6] = test system: Bcl2-transfected MM.1S cells; experiment: MTT viability of Bcl2-transfected MM.1S cells
Method: Bcl2 confers resistance to conventional therapies in cancer cells, including MM. […] Bcl2 can modestly attenuate Bortezomib-induced apoptosis. Thus, whether ectopic expression of Bcl2 in MM.1S cells affects responsiveness to the compound of formula (II) (X=Cl) was evaluated. MM.1S cells were stably transfected with Bcl2 construct and analyzed for alterations in cell viability using an MTT assay. […] Results are mean±SD of three independent experiments.
During apoptosis Bax neutralizes the antiapoptotic function of Bcl-2, thereby facilitating the cyto-c release and caspase-9 activation. Bcl-2 also confers drug resistance in cancer cells, including MM, and provides partial protection against Bortezomib-induced killing. Therefore, whether ectopic expression of Bcl-2 in MM.1S cells affects the ability of the compound of formula (II) or Bortezomib to trigger cytotoxicity and postmitochondrial apoptotic signaling in MM cells was evaluated.

proteasome = proteasome (Homo sapiens, UniProt P28074); settings: Goldberg & Rock 2002; Adams 2004; cited from earlier work
Chain of proteasome (P28074 60-263): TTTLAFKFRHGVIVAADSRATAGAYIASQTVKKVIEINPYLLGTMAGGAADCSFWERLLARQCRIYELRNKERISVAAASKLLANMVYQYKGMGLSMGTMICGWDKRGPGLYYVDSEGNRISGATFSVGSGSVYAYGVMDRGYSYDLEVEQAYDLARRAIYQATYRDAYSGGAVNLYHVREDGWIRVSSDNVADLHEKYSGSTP

[7] = test system: Chymotrypsin-like proteasome activity; assay type: cell-based, human; settings: data not shown
Description: as §1

MM.1S cells [8] = experiment: MTT viability of MM.1S cells with or without rhIL-6 or rhIGF-I; assay type: cell-based, human; settings: human, 24 h
Description: Adhesion of MM cells to BMSCs induces IL-6 and IGF-I secretion from BMSCs, which not only regulates the growth of MM cells, but also protects against chemotherapy. See Hardin, J., MacLeod, S., Grigorieva, I., Chang, R., Barlogie, B., Xiao, H. & Epstein, J. (1994) Blood 84, 3063-70 and Chauhan, D., Kharbanda, S., Ogata, A., Urashima, M., Teoh, G., Robertson, M., Kufe, D. W. & Anderson, K. C. […] Thus, whether rhIL-6 or rhIGF-I inhibits apoptosis in MM cells induced by the compound of Formula (II) (X=Cl) was evaluated. […] At 24 h cells were harvested and viability analyzed by MTT assays. […] Median viability was 51±2.1% after treatment with Dex and 92±5.5% for Dex+rhIL-6 (P=0.05, as determined by one-sided Wilcoxon rank-sum test). Results are mean±SD of three independent experiments. […] In contrast and as in other studies, both IL-6 and IGF-I block Dex-induced decreased MM.1S cell viability. See Chauhan, D., Hideshima, T. & Anderson, K. C. (2003) Int J Hematol 78, 114-20 and Mitsiades, C. S., Mitsiades, N., Poulaki, V., Schlossman, R., Akiyama, M., Chauhan, D., Hideshima, T., Treon, S. P., Munshi, N. C., Richardson, P. G. & Anderson, K. C.

Compound	Bax levels in mitochondria (Bax)	tumor progression (RPMI 8226 MM cells; p<0.01)	survival (RPMI 8226 MM cells; p=0.0137)	inhibition of the β-2 subunits [1]	IC50 [2] [nM]	cell viability in Bax (WT) and Bax (knock-out) MEFs [3]	decrease in viability of normal lymphocytes [4] [%]	increase in survival of DN-FADD-transfected compared to vector-transfected cells (MM.1S cells [5]; FIG. 12D) [%]	IC50 (MM.1S cells [5]; Homo sapiens, MM1.S) [nM]	effect of caspase-8 blockade on triggered cell death (MM.1S cells [5]; IETD-fmk, FIG. 12A)	effect of caspase-9 inhibition on decreased viability (MM.1S cells [5]; LEHD-FMK, FIG. 12A)	survival of DN-caspase-8-transfected compared to DN-caspase-9-transfected cells (MM.1S cells [5]; treated at IC50, FIG. 12B)	effect of caspase-3 inhibition on induced apoptosis (MM.1S cells [5]; z-VAD-fmk, FIG. 12A)	increased survival of Bcl-2 transfectants ([6]; Bcl-2- versus vector-transfected, FIG. 14A) [%]	decrease of caspase-9 cleavage in Bcl-2-transfected cells by densitometry ([6]; versus vector-transfected cells, FIG. 14B) [fold]	proteasome activities inhibited (proteasome)	inhibition of Chymotrypsin-like proteasome activity ([7]; 20 nM) [%]	proteasome activity in CCD-27sk fibroblasts ([7]; treatment at the IC50)	median cell viability (MM.1S cells [8]) [%]
CC(C)C[C@H](NC(=O)[C@H](Cc1ccccc1)NC(=O)c1cnccn1)B(O)O [Bortezomib, reference compound]	significant accumulation of Bax in mitochondria	significantly reduced the tumor progression	prolonged survival	does not inhibit the β-2 subunits	15	deletion of Bax confers significant resistance	50	16	5	equally blocked	equally blocked	increased the survival to a similar extent	markedly abrogates	21	3	inhibit only chymotrypsin-like proteasome activity	59±11	inhibited proteasome activity	
C[C@@H]1C[C@H]2[C@@H]3CCC4=CC(=O)C=C[C@]4(C)[C@@]3(F)[C@@H](O)C[C@]2(C)[C@@]1(O)C(=O)CO [Dex, reference compound]																			51±2.1
